Columns and labels:
HT-29 cells = test: CellTiter-Glo luminescent cell viability assay with HT-29 cells (72h incubation); assay type: cell-based, human; settings: Homo sapiens, HT-29, HT29 cells, read-out: CTG HT29
How it was run: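 400 cells per well in DMEM/10% FCS were dosed after 24 h and kept 72 h at 37 °C, 5% CO2. ATP-based luminescence (CellTiter-Glo) normalized to DMSO and 10 μM staurosporine controls; IC50 by dose-response fit.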

[1] = test system: A549 (human lung carcinoma cell line); test: Glo assay of A549 cells (Table 3; ProteasomeGlo plating scheme); assay type: cell-based; settings: Homo sapiens; A549 cells; read-out: PGLo A549
How it was run: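 Cells plated in 384 wells; compound, DMSO, staurosporine transferred by ECHO; 105 min, 37° C., 5% CO2; Proteasome-Glo (Suc-LLVY-Glo) reagent added; dark 10-15 min; luminescence; IC50 nM.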

[2] = target: T1, β5 subunit of the human immunoproteasome (IPS) (Homo sapiens, UniProt P28062); test: β5 inhibition assay, human immunoproteasome (Suc-LLVY-AMC); assay type: biochemical; settings: IC50 class, Suc-LLVY-AMC substrate
T1 construct: purchased Boston Biochem E-370
How it was run: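 Human immunoproteasome (1 nM final) was preincubated 10 min at RT with compound in 100 mM HEPES pH 7.5, 50 mM NaCl, 0.02% SDS, 1 mM DTT. Suc-LLVY-AMC (22.6 μM final) was then added for 4 h at RT in the dark. After stopping with 1 μM bortezomib, AMC fluorescence was read (ex 355/em 460 nm).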

[3] = target: T2, β5 subunit of the human constitutive proteasome (CPS) (Homo sapiens, UniProt P28074); test: β5 inhibition assay, human constitutive proteasome (Suc-LLVY-AMC); assay type: biochemical; settings: IC50 class, Suc-LLVY-AMC substrate
T2 construct: purchased Boston Biochem E-360
Procedure: The enzymatic activity of the β5 subunit of the human constitutive proteasome (CPS) is analyzed. In another assay, which differs from the assay of the human constitutive proteasome only in using the human immunoproteasome (IPS) the enzymatic activity of the β5 subunit of the human immunoproteasome (IPS) is analyzed. […] Inhibition is indicated as IC50 [nM] (“-”=not measured).

Cc1ccc2cc1CNC(=O)[C@H](CCc1ccccc1)NC(=O)[C@@H](NC(=O)C1(C)COC1)CC(=O)N1CCCC(CCO2)C1 (stereo partly drawn) [Compound 287, 3-methyl-N-((9S,12S)-5^4-methyl-8,11,14-trioxo-9-phenethyl-4-oxa-7,10-diaza-1(3,1)-piperidina-5(1,3)-benzenacyclotetradecaphane-12-yl)oxetane-3-carboxamide]
IC50 (HT-29 cells): < 100 nM
IC50 [1]: < 100 nM
IC50 [2]: < 100 nM
IC50 [3]: < 100 nM

Cc1ccc2cc1CNC(=O)[C@H](CCc1ccccc1)NC(=O)[C@@H](NC(=O)C(C)(CO)CO)CC(=O)N1CCCC(CCO2)C1 (stereo partly drawn) [Compound 286, 3-hydroxy-2-(hydroxymethyl)-2-methyl-N-((9S,12S)-5^4-methyl-8,11,14-trioxo-9-phenethyl-4-oxa-7,10-diaza-1(3,1)-piperidina-5(1,3)-benzenacyclotetradecaphane-12-yl)propanamide]
IC50 (HT-29 cells): < 100 nM
IC50 [1]: 100 to 500 nM
IC50 [2]: < 100 nM
IC50 [3]: < 100 nM

C=CS(=O)(=O)N[C@H]1CC(=O)N2CCCC(CCOc3ccc(C)c(c3)CNC(=O)[C@H](CCc3ccccc3)NC1=O)C2 (stereo partly drawn) [Compound 180, N-((9S,12S)-5^4-methyl-8,11,14-trioxo-9-phenethyl-4-oxa-7,10-diaza-1(3,1)-piperidina-5(1,3)-benzenacyclotetradecaphane-12-yl)ethenesulfonamide]
IC50 (HT-29 cells): < 100 nM
IC50 [1]: < 100 nM
IC50 [2]: < 100 nM
IC50 [3]: < 100 nM

Cc1nc2cc(CCC(=O)N[C@H]3CC(=O)N4CCCC(CCOc5ccc(C)c(c5)CNC(=O)[C@H](CCc5ccccc5)NC3=O)C4)ccc2[nH]1 (stereo partly drawn) [Compound 174, 3-(2-methyl-1H-benzo[d]imidazol-6-yl)-N-((9S,12S)-5^4-methyl-8,11,14-trioxo-9-phenethyl-4-oxa-7,10-diaza-1(3,1)-piperidina-5(1,3)-benzenacyclotetradecaphane-12-yl)propanamide]
IC50 (HT-29 cells): < 100 nM
IC50 [1]: < 100 nM
IC50 [2]: < 100 nM
IC50 [3]: < 100 nM

Cc1ccc2cc1CNC(=O)[C@H](CCc1ccccc1)NC(=O)[C@@H](NC(=O)CCc1ccc3[nH]ccc3c1)CC(=O)N1CCCC(CCO2)C1 (stereo partly drawn) [Compound 182, 3-(1H-indol-5-yl)-N-((9S,12S)-5^4-methyl-8,11,14-trioxo-9-phenethyl-4-oxa-7,10-diaza-1(3,1)-piperidina-5(1,3)-benzenacyclotetradecaphane-12-yl)propanamide]
IC50 (HT-29 cells): < 100 nM
IC50 [1]: < 100 nM
IC50 [2]: < 100 nM
IC50 [3]: < 100 nM

Cc1ccc2cc1CNC(=O)[C@H](CCc1ccccc1)NC(=O)[C@@H](NC(=O)CN1CCCC1)CC(=O)N1CCCC(CCO2)C1 (stereo partly drawn) [Compound 89, N-((9S,12S)-5^4-methyl-8,11,14-trioxo-9-phenethyl-4-oxa-7,10-diaza-1(3,1)-piperidina-5(1,3)-benzenacyclotetradecaphane-12-yl)-2-(pyrrolidin-1-yl)acetamide]
IC50 (HT-29 cells): < 100 nM
IC50 [1]: < 100 nM
IC50 [2]: < 100 nM
IC50 [3]: < 100 nM

Cc1ccc2cc1CNC(=O)[C@H](CCc1ccccc1)NC(=O)[C@@H](NC(=O)C1CC(F)(F)CN1)CC(=O)N1CCCC(CCO2)C1 (stereo partly drawn) [Compound 135, (2S)-4,4-difluoro-N-((9S,12S)-5^4-methyl-8,11,14-trioxo-9-phenethyl-4-oxa-7,10-diaza-1(3,1)-piperidina-5(1,3)-benzenacyclotetradecaphane-12-yl)pyrrolidine-2-carboxamide]
IC50 (HT-29 cells): < 100 nM
IC50 [1]: < 100 nM
IC50 [2]: < 100 nM
IC50 [3]: < 100 nM

CCC(CC)(CO)C(=O)N[C@H]1CC(=O)N2CCCC(CCOc3ccc(C)c(c3)CNC(=O)[C@H](CCc3ccccc3)NC1=O)C2 (stereo partly drawn) [Compound 285, 2-ethyl-2-(hydroxymethyl)-N-((9S,12S)-5^4-methyl-8,11,14-trioxo-9-phenethyl-4-oxa-7,10-diaza-1(3,1)-piperidina-5(1,3)-benzenacyclotetradecaphane-12-yl)butanamide]
IC50 (HT-29 cells): < 100 nM
IC50 [1]: 100 to 500 nM
IC50 [2]: < 100 nM
IC50 [3]: < 100 nM

Cc1ccc2cc1CNC(=O)[C@H](CCc1ccccc1)NC(=O)[C@@H](NC(=O)c1ccncc1)CC(=O)N1CCCC(CCO2)C1 (stereo partly drawn) [Compound 42, N-((9S,12S)-5^4-methyl-8,11,14-trioxo-9-phenethyl-4-oxa-7,10-diaza-1(3,1)-piperidina-5(1,3)-benzenacyclotetradecaphane-12-yl)isonicotinamide]
IC50 (HT-29 cells): < 100 nM
IC50 [1]: < 100 nM
IC50 [2]: < 100 nM
IC50 [3]: < 100 nM

Cc1ccc2cc1CNC(=O)[C@H](CCc1ccccc1)NC(=O)[C@@H](NC(=O)C1(F)CCNCC1)CC(=O)N1CCCC(CCO2)C1 (stereo partly drawn) [Compound 134, 4-fluoro-N-((9S,12S)-5^4-methyl-8,11,14-trioxo-9-phenethyl-4-oxa-7,10-diaza-1(3,1)-piperidina-5(1,3)-benzenacyclotetradecaphane-12-yl)piperidine-4-carboxamide]
IC50 (HT-29 cells): < 100 nM
IC50 [1]: < 100 nM
IC50 [2]: < 100 nM
IC50 [3]: < 100 nM

COc1cccc(CC(=O)N[C@H]2CC(=O)N3CCCC(CCOc4ccc(C)c(c4)CNC(=O)[C@H](CCc4ccccc4)NC2=O)C3)c1 (stereo partly drawn) [Compound 85, 2-(3-methoxyphenyl)-N-((9S,12S)-5^4-methyl-8,11,14-trioxo-9-phenethyl-4-oxa-7,10-diaza-1(3,1)-piperidina-5(1,3)-benzenacyclotetradecaphane-12-yl)acetamide]
IC50 (HT-29 cells): < 100 nM
IC50 [1]: < 100 nM
IC50 [2]: < 100 nM
IC50 [3]: < 100 nM

C=CC(=O)N[C@H]1CC(=O)N2CCCC(CCOc3ccc(C)c(c3)CNC(=O)[C@H](CCc3ccccc3)NC1=O)C2 (stereo partly drawn) [Compound 181, N-((9S,12S)-5^4-methyl-8,11,14-trioxo-9-phenethyl-4-oxa-7,10-diaza-1(3,1)-piperidina-5(1,3)-benzenacyclotetradecaphane-12-yl)acrylamide]
IC50 (HT-29 cells): < 100 nM
IC50 [1]: < 100 nM
IC50 [2]: < 100 nM
IC50 [3]: < 100 nM

Cc1ccc2cc1CNC(=O)[C@H](CCc1ccccc1)NC(=O)[C@@H](NC(=O)CCc1ccccc1-c1ccccc1)CC(=O)N1CCCC(CCO2)C1 (stereo partly shown) [Compound 177]
IC50 (HT-29 cells): < 100 nM
IC50 [1]: < 100 nM
IC50 [2]: < 100 nM
IC50 [3]: < 100 nM

Cc1cc2cc(c1C)CNC(=O)[C@H](Cc1c[nH]c3ccccc13)NC(=O)CCC(=O)N1CCCC(CCO2)C1 (stereo partly drawn) [Compound 120, (9S)-9-((1H-indol-3-yl)methyl)-5^4,5^5-dimethyl-4-oxa-7,10-diaza-1(3,1)-piperidina-5(1,3)-benzenacyclotetradecaphane-8,11,14-trione]
IC50 (HT-29 cells): 100 to 500 nM
IC50 [1]: 1000 to 5000 nM
IC50 [2]: < 100 nM
IC50 [3]: < 100 nM

CC(=O)N[C@H]1CCCC(=O)N2CCC2(C)COc2ccc(C)c(c2)CNC(=O)[C@H](CCc2ccccc2)NC1=O (stereo partly drawn) [Compound 281, N-((8S,11S)-1^2,4^4-dimethyl-7,10,15-trioxo-8-phenethyl-3-oxa-6,9-diaza-1(2,1)-azetidina-4(1,3)-benzenacyclopentadecaphane-11-yl)acetamide]
IC50 (HT-29 cells): 100 to 500 nM
IC50 [1]: 1000 to 5000 nM
IC50 [2]: 1000 to 5000 nM
IC50 [3]: 1000 to 5000 nM

Cc1ccc2cc1CNC(=O)[C@H](Cc1ccccc1)NC(=O)CCC(=O)N1CCCC(CCO2)C1 (stereo partly drawn) [Compound 79, (9S)-9-benzyl-5^4-methyl-4-oxa-7,10-diaza-1(3,1)-piperidina-5(1,3)-benzenacyclotetradecaphane-8,11,14-trione]
IC50 (HT-29 cells): 1000 to 5000 nM
IC50 [1]: 1000 to 5000 nM
IC50 [2]: < 100 nM
IC50 [3]: 100 to 500 nM

COc1ccc(CC(=O)N[C@H]2CC(=O)N3CCCC(CCOc4ccc(C)c(c4)CNC(=O)[C@H](CCc4ccccc4)NC2=O)C3)cc1OC (stereo partly drawn) [Compound 63, 2-(3,4-dimethoxyphenyl)-N-((9S,12S)-5^4-methyl-8,11,14-trioxo-9-phenethyl-4-oxa-7,10-diaza-1(3,1)-piperidina-5(1,3)-benzenacyclotetradecaphane-12-yl)acetamide]
IC50 (HT-29 cells): < 100 nM
IC50 [1]: < 100 nM
IC50 [2]: < 100 nM
IC50 [3]: < 100 nM

Cc1ccc2cc1CNC(=O)[C@H](CCc1ccccc1)NC(=O)[C@@H](NS(=O)(=O)Cc1ccccc1)CC(=O)N1CCCC(CCO2)C1 (stereo partly drawn) [Compound 216, N-((9S,12S)-5^4-methyl-8,11,14-trioxo-9-phenethyl-4-oxa-7,10-diaza-1(3,1)-piperidina-5(1,3)-benzenacyclotetradecaphane-12-yl)-1-phenylmethanesulfonamide]
IC50 (HT-29 cells): < 100 nM
IC50 [1]: 100 to 500 nM
IC50 [2]: < 100 nM
IC50 [3]: < 100 nM

COc1ccc(CC(=O)N[C@H]2CC(=O)N3CCCC(CCOc4ccc(C)c(c4)CNC(=O)[C@H](CCc4ccccc4)NC2=O)C3)cc1 (stereo partly drawn) [Compound 83, 2-(4-methoxyphenyl)-N-((9S,12S)-5^4-methyl-8,11,14-trioxo-9-phenethyl-4-oxa-7,10-diaza-1(3,1)-piperidina-5(1,3)-benzenacyclotetradecaphane-12-yl)acetamide]
IC50 (HT-29 cells): < 100 nM
IC50 [1]: < 100 nM
IC50 [2]: < 100 nM
IC50 [3]: < 100 nM

From patent US20240415819A1, “MACROCYCLIC COMPOUNDS AS PROTEASOME SUBUNIT BETA TYPE-5 INHIBITORS” (Lead Discovery Center GmbH, priority 2021, published 2024)
